# Laboratory results from patent US8686050B2, “Diglycidic ether derivative therapeutics and methods for their use” (British Columbia Cancer Agency Branch, priority 2008, dated 2014).
# Entries after “also recorded” stand apart in the source; their conditions may differ. Structures can show the parent of a compound that is named as a salt.
# Key:
# AR [1] = target: T1, AR (Homo sapiens, UniProt P10275, T878A); assay: Western blot of AR protein in LNCaP whole cell lysates; assay type: cell-based; parameters: LNCaP cells express endogenous AR and secrete prostate-specific antigen (PSA); endogenous in cells; host or cells: LNCaP
# T1 sequence (P10275 1-920 T878A): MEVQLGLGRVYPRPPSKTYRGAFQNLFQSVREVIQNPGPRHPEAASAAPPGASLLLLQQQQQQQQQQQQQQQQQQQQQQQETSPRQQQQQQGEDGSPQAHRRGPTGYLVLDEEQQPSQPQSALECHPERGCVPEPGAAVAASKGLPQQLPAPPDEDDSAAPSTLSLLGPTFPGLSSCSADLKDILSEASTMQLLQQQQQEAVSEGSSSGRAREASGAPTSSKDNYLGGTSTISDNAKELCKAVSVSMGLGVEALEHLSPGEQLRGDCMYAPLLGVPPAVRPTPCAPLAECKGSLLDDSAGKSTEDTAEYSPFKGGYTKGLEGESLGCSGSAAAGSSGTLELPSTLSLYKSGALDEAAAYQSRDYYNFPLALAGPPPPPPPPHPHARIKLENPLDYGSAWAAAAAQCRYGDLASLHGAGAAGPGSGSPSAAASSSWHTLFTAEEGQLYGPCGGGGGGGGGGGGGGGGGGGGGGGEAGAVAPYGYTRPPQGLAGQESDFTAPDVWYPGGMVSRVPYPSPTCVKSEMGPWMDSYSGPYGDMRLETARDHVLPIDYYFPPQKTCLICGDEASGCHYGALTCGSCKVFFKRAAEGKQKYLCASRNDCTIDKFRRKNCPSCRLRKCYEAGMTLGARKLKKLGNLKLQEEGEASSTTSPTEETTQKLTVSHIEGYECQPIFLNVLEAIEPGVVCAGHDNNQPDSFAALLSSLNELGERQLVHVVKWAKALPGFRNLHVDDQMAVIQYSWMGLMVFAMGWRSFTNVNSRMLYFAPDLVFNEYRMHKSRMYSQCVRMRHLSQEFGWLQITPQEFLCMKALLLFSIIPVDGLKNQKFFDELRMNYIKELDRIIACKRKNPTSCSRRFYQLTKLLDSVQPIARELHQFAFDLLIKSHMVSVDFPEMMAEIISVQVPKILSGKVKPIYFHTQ
# AR [2] = target: T1, AR; assay: Nuclear translocation of AR in LNCaP cells (fractionation, fluorescence microscopy); assay type: cell-based; parameters: LNCaP cells express endogenous AR and secrete prostate-specific antigen (PSA); endogenous in cells; host or cells: LNCaP
# [3] = target: T2, VP16-ARTAD and Gal4-ARLBD (Homo sapiens, UniProt P10275); assay: N/C interaction, mammalian two-hybrid in CV1 cells; assay type: cell-based; settings: R1881, 24 hr, 185-9-2 10 μg/ml, bicalutamide 10 μM
# T2 construct: amino acids 1-565 of the AR NTD fused to VP16 at the N-terminus; the LBD of the AR (amino acids 628-919; Gal4-ARLBD; the C terminus); expressed in transfected cells; host or cells: CV1
# T2 sequence (P10275 1-565): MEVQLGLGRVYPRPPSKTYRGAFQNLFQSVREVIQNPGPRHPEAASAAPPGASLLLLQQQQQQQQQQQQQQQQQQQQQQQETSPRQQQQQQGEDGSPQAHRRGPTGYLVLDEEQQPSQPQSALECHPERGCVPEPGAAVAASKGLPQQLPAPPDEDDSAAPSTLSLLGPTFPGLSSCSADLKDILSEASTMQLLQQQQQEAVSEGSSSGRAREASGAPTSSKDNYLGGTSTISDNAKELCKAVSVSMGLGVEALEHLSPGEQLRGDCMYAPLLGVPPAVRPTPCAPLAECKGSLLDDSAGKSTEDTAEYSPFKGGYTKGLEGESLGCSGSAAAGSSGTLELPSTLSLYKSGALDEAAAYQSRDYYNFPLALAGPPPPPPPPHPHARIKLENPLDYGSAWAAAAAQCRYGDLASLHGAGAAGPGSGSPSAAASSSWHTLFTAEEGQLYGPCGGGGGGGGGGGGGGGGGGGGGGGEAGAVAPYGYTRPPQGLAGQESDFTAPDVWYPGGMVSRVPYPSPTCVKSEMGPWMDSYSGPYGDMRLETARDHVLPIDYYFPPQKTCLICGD
# PSA mRNA = assay: Endogenous PSA mRNA in LNCaP cells by QRT-PCR; assay type: cell-based, human; settings: 185-9-2 5 μg/ml, R1881 1 nM 16 hours, normalized to GAPDH mRNA
# Method: Induction of PSA mRNA by both R1881 (ligand-dependent) and FSK (ligand-independent) in LNCaP cells is dependent upon AR (Sadar, M. D., J. Biol. Chem. 274, 7777-7783 (1999); Wang G, Jones S J, Marra M A, Sadar M D, Oncogene 2006; 25:7311-23.). To test whether the compounds have an effect on endogenous gene expression, the levels of PSA mRNA in LNCaP cells exposed to R1881 were measured. LNCaP cells (in serum-free and phenol-red free media) were incubated with compounds for 1 hour before the addition of R1881 (1 nM) for an additional 16 hours before harvesting and isolating total RNA. Levels of mRNA were measured using QPCR. Levels of PSA mRNA were normalized to levels of GAPDH mRNA.
smiles,measurement,setting,value
"CC(C)(c1ccc(OCC(O)CO)cc1)c1ccc(OCC(O)CCl)cc1 (stereo not drawn) [185-9-2, BADGE.HCL.H2O]",levels of AR protein in whole cell extracts,AR [1]; LNCaP cells treated 3 or 16 hours,does NOT decrease levels of AR protein; also recorded: not decreased
same,"levels of AR protein, long term incubation","AR [1]; LNCaP cells, 48 hrs, presence or absence of DHT",did not reduce levels of AR protein
same,nuclear translocation of the AR in the absence of androgen,AR [2]; compound on its own,did not cause nuclear translocation of the AR
same,nuclear translocation of AR protein in response to androgen,"AR [2]; pretreated 1 hr, 10 nM DHT",nor did it prevent nuclear translocation of AR protein
same,androgen-stimulated N/C interaction,[3],inhibit androgen-stimulated N/C interaction
same,endogenous PSA mRNA induction by R1881,PSA mRNA,to almost baseline levels; also recorded: inhibited endogenous PSA gene expression
